In patent publication US20110319416A1, “Subunit Selective NMDA Receptor Antagonists For The Treatment Of Neurological Conditions” (EMORY UNIVERSITY, priority 2009, published 2011):
pIC50: −log10 of the molar value. Read-outs that look alike come from different tables or passages of the source.

Assays:
Format in all cases: cell-based
NR1/NR2C = NR1/NR2C (Rattus norvegicus, UniProt P35439+Q00961); assay: Two electrode voltage clamp, Xenopus oocytes expressing recombinant NR1/NR2C; settings: for remaining activity at 100 µM: read-out: 2C percent effect at the maximum tested concentration
Procedure: (§1) Quality of synthesized cRNA was assessed by gel electrophoresis, and quantity was estimated by spectroscopy and gel electrophoresis. Stage V and VI oocytes were surgically removed from the ovaries of large, well-fed and healthy Xenopus laevis anesthetized with 3-amino-benzoic acid ethyl ester (3 gm/l) as previously described. Clusters of isolated oocytes were incubated with 292 U/ml Worthington (Freehold, N.J.) type IV collagenase or 1.3 mg/ml collagenase (Life Technologies, Gaithersburg, MD; 17018-029) for 2 hr in Ca^2+-free solution comprised of (in mM) 115 NaCl, 2.5 KCl, and 10 HEPES, pH 7.5, with slow agitation to remove the follicular cell layer. Oocytes were then washed extensively in the same solution supplemented with 1.8 mM CaCl2 and maintained in Barth's solution comprised of (in mM): 88 NaCl, 1 KCl, 2.4 NaHCO3, 10 HEPES, 0.82 MgSO4, 0.33 Ca(NO3)2, and 0.91 CaCl2 and supplemented with 100 μg/m1 gentamycin, 10 μg/ml streptomycin, and 10 μg/ml penicillin. Oocytes were manually defolliculated and injected within 24 hrs of isolation with 3-5 ng of NR1 subunit cRNA and 7-10 ng of NR2 cRNA subunit in a 50 nl volume, or 5-10 ng of AMPA or kainate receptor cRNAs in a 50 nl volume, and incubated in Barth's solution at 18° C. for 1-7 d. Glass injection pipettes had tip sizes ranging from 10-20 microns, and were backfilled with mineral oil.
(§2) Two electrode voltage-clamp recordings were made 2-7 days post-injection as previously described. Oocytes were placed in a dual-track plexi-glass recording chamber with a single perfusion line that splits in a Y-configuration to perfuse two oocytes. Dual recordings were made at room temperature (23° C.) using two Warner OC725B two-electrode voltage clamp amplifiers, arranged as recommended by the manufacturer. Glass microelectrodes (1-10 Megaohms) were filled with 300 mM KCl (voltage electrode) or 3 M KCl (current electrode). The bath clamps communicated across silver chloride wires placed into each side of the recording chamber, both of which were assumed to be at a reference potential of 0 mV. Oocytes were perfused with a solution comprised of (in mM) 90 NaCl, 1 KCl, 10 HEPES, and 0.5 BaCl2; pH was adjusted by addition of 1-3 M NaOH of HC1 to 7.4. Oocytes were recorded under voltage clamp at −40 mV. […] In some experiments, 10 μM EDTA was obtained by adding a 1:1000 dilution of 10 mM EDTA, in order to chelate contaminant divalent ions such as Zn^2+. […] Concentration effect curves consisting of 4 to 8 concentrations were obtained in this manner. The baseline leak current at −40 mV was measured before and after recording, and the full recording linearly corrected for any change in leak current. […] Each experiment consisted of recordings from 3 to 10 oocytes obtained from a single frog. Results from multiple experiments were pooled, and the average percent responses at antagonist concentrations were fitted by the equation,
(§3) Percent Response=(100−minimum)/(1+([conc]/IC50)nH)+minimum

NR1/NR2A = NR1/NR2A (Rattus norvegicus, UniProt P35439+Q00959); assay: Two electrode voltage clamp, Xenopus oocytes expressing recombinant NR1/NR2A; settings: for pIC50: logistic fit, minimum forced to 0, read-out: 2A IC50
Procedure: as §1, §2, §3

NR1/NR2B = NR1/NR2B (Rattus norvegicus, UniProt P35439+Q00960); assay: Two electrode voltage clamp, Xenopus oocytes expressing recombinant NR1/NR2B
Procedure: as §1, §2, §3

NR1/NR2D = NR1/NR2D (Rattus norvegicus, UniProt P35439+Q62645); assay: Two electrode voltage clamp, Xenopus oocytes expressing recombinant NR1/NR2D; settings: for remaining activity at 100 µM: read-out: 2D percent effect at the maximum tested concentration
Procedure: as §1, §2, §3

[1] = read-out: 2A percent effect at the maximum tested concentration
[2] = read-out: 2B percent effect at the maximum tested concentration
[3] = at 100 μM, read-out: 2A percent effect at the maximum tested concentration
[4] = at 100 μM, read-out: 2B percent effect at the maximum tested concentration
[5] = logistic fit, minimum forced to 0, read-out: 2C IC50
[6] = logistic fit, minimum forced to 0, read-out: 2D IC50
[7] = logistic fit, minimum forced to 0, read-out: 2B IC50

Chain of NR1/NR2A (Q00959 23-1464, other chains not shown): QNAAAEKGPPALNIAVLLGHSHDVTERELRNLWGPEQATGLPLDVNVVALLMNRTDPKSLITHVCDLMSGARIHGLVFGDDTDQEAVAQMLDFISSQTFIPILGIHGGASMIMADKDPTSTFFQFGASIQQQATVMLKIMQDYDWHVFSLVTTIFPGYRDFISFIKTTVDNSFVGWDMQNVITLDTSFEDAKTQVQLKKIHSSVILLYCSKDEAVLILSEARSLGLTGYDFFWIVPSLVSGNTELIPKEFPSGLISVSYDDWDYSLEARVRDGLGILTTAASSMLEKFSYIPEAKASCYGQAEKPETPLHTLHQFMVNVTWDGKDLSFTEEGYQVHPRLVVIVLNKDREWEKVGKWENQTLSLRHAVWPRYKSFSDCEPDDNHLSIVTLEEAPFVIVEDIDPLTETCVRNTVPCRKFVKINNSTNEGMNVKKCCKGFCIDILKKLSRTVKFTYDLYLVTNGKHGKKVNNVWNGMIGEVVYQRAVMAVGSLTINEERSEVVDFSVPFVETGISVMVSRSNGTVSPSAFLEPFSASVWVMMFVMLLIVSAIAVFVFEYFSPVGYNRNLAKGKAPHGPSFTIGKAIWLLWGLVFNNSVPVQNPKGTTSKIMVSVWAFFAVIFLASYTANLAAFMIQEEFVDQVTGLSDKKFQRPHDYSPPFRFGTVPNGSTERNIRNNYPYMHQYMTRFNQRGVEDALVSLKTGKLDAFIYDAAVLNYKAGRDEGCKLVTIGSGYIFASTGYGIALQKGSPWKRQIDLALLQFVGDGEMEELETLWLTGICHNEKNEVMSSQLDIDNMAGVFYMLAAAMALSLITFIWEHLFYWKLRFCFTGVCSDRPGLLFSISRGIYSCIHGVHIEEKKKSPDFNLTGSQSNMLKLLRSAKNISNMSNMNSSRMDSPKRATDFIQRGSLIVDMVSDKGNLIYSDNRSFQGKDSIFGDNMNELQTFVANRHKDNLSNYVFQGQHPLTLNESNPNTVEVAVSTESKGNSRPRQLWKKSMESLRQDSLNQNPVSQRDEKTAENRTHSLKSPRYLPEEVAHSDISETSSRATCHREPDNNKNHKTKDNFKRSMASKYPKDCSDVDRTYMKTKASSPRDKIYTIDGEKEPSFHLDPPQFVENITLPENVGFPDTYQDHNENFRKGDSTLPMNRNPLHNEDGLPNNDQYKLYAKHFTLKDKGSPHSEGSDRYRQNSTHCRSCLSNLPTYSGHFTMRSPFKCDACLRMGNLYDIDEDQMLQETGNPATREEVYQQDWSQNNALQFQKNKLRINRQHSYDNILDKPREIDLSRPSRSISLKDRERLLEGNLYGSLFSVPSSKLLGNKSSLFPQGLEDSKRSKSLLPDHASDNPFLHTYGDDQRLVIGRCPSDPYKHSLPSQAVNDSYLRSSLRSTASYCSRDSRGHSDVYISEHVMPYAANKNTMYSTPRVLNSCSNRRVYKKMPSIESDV
Chain of NR1/NR2B (Q00960 27-1482, other chains not shown): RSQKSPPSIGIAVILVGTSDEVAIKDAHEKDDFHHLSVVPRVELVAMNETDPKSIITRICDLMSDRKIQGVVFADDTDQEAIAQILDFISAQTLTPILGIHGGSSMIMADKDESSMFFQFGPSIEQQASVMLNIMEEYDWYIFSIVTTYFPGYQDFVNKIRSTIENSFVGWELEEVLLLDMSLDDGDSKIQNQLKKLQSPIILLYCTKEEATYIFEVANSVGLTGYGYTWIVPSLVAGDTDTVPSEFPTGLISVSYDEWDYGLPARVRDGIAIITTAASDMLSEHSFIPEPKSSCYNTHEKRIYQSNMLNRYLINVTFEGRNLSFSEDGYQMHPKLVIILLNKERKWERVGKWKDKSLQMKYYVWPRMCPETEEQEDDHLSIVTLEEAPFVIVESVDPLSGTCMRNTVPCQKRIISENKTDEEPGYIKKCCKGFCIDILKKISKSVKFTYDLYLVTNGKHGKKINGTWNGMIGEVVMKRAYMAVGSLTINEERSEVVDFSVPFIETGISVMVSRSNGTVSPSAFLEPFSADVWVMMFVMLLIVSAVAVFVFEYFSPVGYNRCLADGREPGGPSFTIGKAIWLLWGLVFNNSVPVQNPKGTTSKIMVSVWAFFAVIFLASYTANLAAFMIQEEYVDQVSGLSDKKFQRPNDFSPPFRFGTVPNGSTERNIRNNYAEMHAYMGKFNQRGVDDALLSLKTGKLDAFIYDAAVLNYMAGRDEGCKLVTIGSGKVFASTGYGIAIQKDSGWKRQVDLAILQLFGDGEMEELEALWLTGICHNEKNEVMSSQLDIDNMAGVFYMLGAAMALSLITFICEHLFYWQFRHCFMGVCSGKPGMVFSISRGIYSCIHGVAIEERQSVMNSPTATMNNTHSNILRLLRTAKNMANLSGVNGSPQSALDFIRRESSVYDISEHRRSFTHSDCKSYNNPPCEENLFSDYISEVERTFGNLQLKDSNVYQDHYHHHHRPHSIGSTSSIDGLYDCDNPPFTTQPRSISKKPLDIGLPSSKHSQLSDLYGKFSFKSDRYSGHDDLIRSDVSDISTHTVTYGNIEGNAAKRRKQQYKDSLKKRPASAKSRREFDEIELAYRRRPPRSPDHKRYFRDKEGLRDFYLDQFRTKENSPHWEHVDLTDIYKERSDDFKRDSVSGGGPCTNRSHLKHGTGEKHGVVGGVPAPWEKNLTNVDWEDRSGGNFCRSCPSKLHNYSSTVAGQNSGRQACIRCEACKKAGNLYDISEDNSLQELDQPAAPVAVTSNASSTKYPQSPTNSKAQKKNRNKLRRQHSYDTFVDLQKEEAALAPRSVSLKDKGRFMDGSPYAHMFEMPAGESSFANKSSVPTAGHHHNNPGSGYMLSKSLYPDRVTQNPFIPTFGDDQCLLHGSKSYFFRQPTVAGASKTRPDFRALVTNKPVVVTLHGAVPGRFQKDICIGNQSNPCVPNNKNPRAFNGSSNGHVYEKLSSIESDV
Chain of NR1/NR2D (Q62645 28-1323, other chains not shown): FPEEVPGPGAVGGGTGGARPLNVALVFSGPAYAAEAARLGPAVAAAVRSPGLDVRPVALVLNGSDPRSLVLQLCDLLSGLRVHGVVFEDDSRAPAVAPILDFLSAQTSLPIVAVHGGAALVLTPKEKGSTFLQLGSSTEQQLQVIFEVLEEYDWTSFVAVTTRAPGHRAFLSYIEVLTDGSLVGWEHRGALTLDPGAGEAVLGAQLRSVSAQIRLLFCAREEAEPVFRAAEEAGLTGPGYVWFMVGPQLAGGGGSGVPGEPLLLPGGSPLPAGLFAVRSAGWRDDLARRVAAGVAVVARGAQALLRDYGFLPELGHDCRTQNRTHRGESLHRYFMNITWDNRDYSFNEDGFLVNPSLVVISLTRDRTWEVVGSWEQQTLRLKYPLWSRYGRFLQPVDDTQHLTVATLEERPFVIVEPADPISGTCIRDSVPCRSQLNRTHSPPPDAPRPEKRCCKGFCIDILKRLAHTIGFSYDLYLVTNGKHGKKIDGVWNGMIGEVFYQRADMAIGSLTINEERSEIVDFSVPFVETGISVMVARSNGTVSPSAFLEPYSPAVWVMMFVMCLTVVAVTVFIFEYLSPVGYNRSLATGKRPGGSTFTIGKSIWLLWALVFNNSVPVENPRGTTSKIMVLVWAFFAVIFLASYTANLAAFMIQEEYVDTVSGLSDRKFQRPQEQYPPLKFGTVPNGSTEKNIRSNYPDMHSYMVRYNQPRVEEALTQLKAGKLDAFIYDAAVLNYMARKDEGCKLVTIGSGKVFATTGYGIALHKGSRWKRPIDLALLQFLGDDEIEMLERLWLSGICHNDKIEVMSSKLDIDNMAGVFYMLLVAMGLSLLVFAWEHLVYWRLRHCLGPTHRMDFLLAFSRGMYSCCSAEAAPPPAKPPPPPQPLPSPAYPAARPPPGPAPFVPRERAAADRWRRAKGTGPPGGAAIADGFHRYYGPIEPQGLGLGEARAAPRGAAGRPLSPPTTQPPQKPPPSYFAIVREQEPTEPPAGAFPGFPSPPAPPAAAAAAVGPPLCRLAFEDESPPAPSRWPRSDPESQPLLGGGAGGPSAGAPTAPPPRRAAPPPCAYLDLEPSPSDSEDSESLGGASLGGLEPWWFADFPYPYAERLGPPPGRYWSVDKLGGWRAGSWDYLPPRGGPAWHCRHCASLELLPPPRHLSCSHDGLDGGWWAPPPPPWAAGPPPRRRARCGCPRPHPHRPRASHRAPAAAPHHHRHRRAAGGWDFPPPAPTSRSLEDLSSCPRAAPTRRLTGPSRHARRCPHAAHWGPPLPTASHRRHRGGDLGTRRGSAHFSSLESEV

## CC(C)N(C(=O)Oc1ccc(C(=O)Nc2ccc3[nH]ccc3c2)cc1)C(C)C [1063-16]
NR1/NR2C
  pIC50: 4.52
NR1/NR2A; [1]
  remaining activity at 100 µM: 100%
NR1/NR2B; [2]
  remaining activity at 100 µM: 81%
NR1/NR2D
  pIC50: 4.36

## CCC(CC)C(=O)Oc1ccc(C(=O)Nc2cccc3ccccc23)cc1 [1063-9]
NR1/NR2C
  remaining activity at 100 µM: 94%
NR1/NR2A; [3]
  remaining activity at 100 µM: 111%
NR1/NR2B; [4]
  remaining activity at 100 µM: 98%
NR1/NR2D
  remaining activity at 100 µM: 86%

## CN(C)C(=O)Oc1ccc(C(=O)Nc2cccc3ccccc23)cc1 [1063-3]
NR1/NR2C
  pIC50: 3.21
NR1/NR2A; [1]
  remaining activity at 100 µM: 110%
NR1/NR2B
  pIC50: 2.84
NR1/NR2D
  pIC50: 3.71

## CCN(CC)C(=O)Oc1ccccc1C(=O)Nc1cccc2ccccc12 [1063-25]
NR1/NR2C
  remaining activity at 100 µM: 83%
NR1/NR2A; [3]
  remaining activity at 100 µM: 88%
NR1/NR2B; [4]
  remaining activity at 100 µM: 88%
NR1/NR2D
  remaining activity at 100 µM: 91%

## CCN(CC)C(=O)Nc1ccc(C(=O)Nc2cccc3ccccc23)cc1 [1063-11]
NR1/NR2C; [5]
  pIC50: 3.16
NR1/NR2A; [3]
  remaining activity at 100 µM: 102%
NR1/NR2B; [4]
  remaining activity at 100 µM: 88%
NR1/NR2D; [6]
  pIC50: 3.28

## CC(C)N(C(=O)Oc1ccc(C(=O)Nc2ccc3cc[nH]c3c2)cc1)C(C)C [1063-15]
NR1/NR2C
  pIC50: 4.96
NR1/NR2A; [1]
  remaining activity at 100 µM: 74%
NR1/NR2B
  pIC50: 4.36
NR1/NR2D
  pIC50: 4.92

## O=C(Nc1cccc2ccccc12)c1ccc(Oc2nc3ccccc3s2)cc1 [1063-23]
NR1/NR2C
  remaining activity at 100 µM: 89%
NR1/NR2A; [3]
  remaining activity at 100 µM: 91%
NR1/NR2B; [4]
  remaining activity at 100 µM: 85%
NR1/NR2D
  remaining activity at 100 µM: 91%

## O=C(Nc1cccc2ccccc12)c1ccc(OC(=O)N2CCCCC2)cc1 [1063-7]
NR1/NR2A; [3]
  remaining activity at 100 µM: 135%
NR1/NR2B; [4]
  remaining activity at 100 µM: 98%
NR1/NR2D
  remaining activity at 100 µM: 84%

## CCN(CC)C(=S)Oc1ccc(C(=O)Nc2ccc(Cl)c3ccccc23)cc1 [1063-12]
NR1/NR2C; [5]
  pIC50: 4.60
NR1/NR2A; [3]
  remaining activity at 100 µM: 92%
NR1/NR2B; [4]
  remaining activity at 100 µM: 80%
NR1/NR2D; [6]
  pIC50: 4.00

## O=C(Nc1cccc2ccccc12)c1ccc(OC(=S)N2CCOCC2)cc1 [compound 1374]
NR1/NR2D; [6]
  pIC50: < 3.00

## O=C(O)c1ccc(C(=O)Nc2cccc3cc[nH]c23)cc1 [1063-28]
NR1/NR2C
  remaining activity at 100 µM: 98%
NR1/NR2A
  pIC50: 3.61
NR1/NR2B; [4]
  remaining activity at 100 µM: 95%
NR1/NR2D
  remaining activity at 100 µM: 89%

## CCN(CC)C(=O)Oc1ccc(C(=O)Nc2cccc3[nH]ccc23)cc1 [1063-26]
NR1/NR2C
  pIC50: 5.10
NR1/NR2A; [1]
  remaining activity at 100 µM: 88%
NR1/NR2B
  pIC50: 3.25
NR1/NR2D
  pIC50: 5.22

## O=C(O)CCC(=O)N1N=C(c2c(-c3ccccc3)c3cc(Br)ccc3[nH]c2=O)CC1c1ccccc1Cl (centres unmarked) [compound 1209]
NR1/NR2C; [5]
  pIC50: 4.66
NR1/NR2A
  pIC50: 4.10
NR1/NR2B; [7]
  pIC50: 4.46
NR1/NR2D; [6]
  pIC50: 4.89

## CCN(C)C(=O)Oc1ccc(C(=O)Nc2cccc3cc[nH]c23)cc1 [1063-30]
NR1/NR2C
  pIC50: 4.14
NR1/NR2A; [1]
  remaining activity at 100 µM: 89%
NR1/NR2B; [2]
  remaining activity at 100 µM: 71%
NR1/NR2D
  pIC50: 4.25

## O=C(Nc1cccc2ccccc12)c1ccc(Oc2nc(-c3ccccc3)cs2)cc1 [1063-22]
NR1/NR2C
  remaining activity at 100 µM: 92%
NR1/NR2A; [3]
  remaining activity at 100 µM: 96%
NR1/NR2B; [4]
  remaining activity at 100 µM: 91%
NR1/NR2D
  remaining activity at 100 µM: 88%

## Cn1c(=O)oc2ccc(C(=O)Nc3cccc4ccccc34)cc21 [1063-29]
NR1/NR2C
  remaining activity at 100 µM: 80%
NR1/NR2A; [3]
  remaining activity at 100 µM: 92%
NR1/NR2B; [4]
  remaining activity at 100 µM: 81%
NR1/NR2D
  remaining activity at 100 µM: 75%

## CCN(CC)C(=O)Oc1ccc(C(=O)Nc2cccc3c2CCCC3)cc1 [1063-18]
NR1/NR2C
  pIC50: 4.64
NR1/NR2A; [1]
  remaining activity at 100 µM: 95%
NR1/NR2B
  pIC50: 3.67
NR1/NR2D
  pIC50: 4.70

## C=CCN(CC=C)C(=S)Oc1ccc(C(=O)Nc2cccc3ccccc23)cc1 [compound 1380]
NR1/NR2D; [6]
  pIC50: 3.55

## Cc1ccc(C2CC(c3c(-c4ccccc4)c4cc(Br)ccc4[nH]c3=O)=NN2C(=O)CCC(=O)O)cc1 (centres unmarked) [compound 1185]
NR1/NR2C; [5]
  pIC50: 4.80
NR1/NR2A
  pIC50: 3.85
NR1/NR2B; [7]
  pIC50: 4.23
NR1/NR2D; [6]
  pIC50: 5.05

## CCN(CC)C(=O)Oc1ccc(C(=O)Nc2cc(C)cc(C)c2)cc1 [1063-17]
NR1/NR2C
  pIC50: 4.74
NR1/NR2A; [1]
  remaining activity at 100 µM: 79%
NR1/NR2B
  pIC50: 4.05
NR1/NR2D
  pIC50: 5.10

## CCN(CC)C(=S)Oc1ccc(C(=O)Nc2ccc3ccccc3c2)cc1 [1063-0]
NR1/NR2C; [5]
  pIC50: 3.61
NR1/NR2A; at 30 μM, read-out: 2A percent effect at the maximum tested concentration
  remaining activity at 30 µM: 101%
NR1/NR2B; at 30 μM, read-out: 2B percent effect at the maximum tested concentration
  remaining activity at 30 µM: 99%
NR1/NR2D; [6]
  pIC50: 4.04

## O=c1[nH]c2ccc(Br)cc2c(-c2ccccc2)c1C1=NNC(c2ccc(F)cc2)C1 (centres unmarked) [compound 1248]
NR1/NR2D; [6]
  pIC50: < 3.52

## O=C(O)CCC(=O)N1N=C(c2c(-c3ccccc3)c3cc(Cl)ccc3[nH]c2=O)CC1c1cccc(Br)c1 (centres unmarked) [compound 1176]
NR1/NR2C; [5]
  pIC50: 5.15
NR1/NR2A
  pIC50: 4.62
NR1/NR2B; [7]
  pIC50: 4.52
NR1/NR2D; [6]
  pIC50: 5.40

## O=C(O)CCC(=O)N1N=C(c2c(-c3ccccc3)c3cc(Cl)ccc3[nH]c2=O)CC1c1ccccc1 (centres unmarked) [compound 1149]
NR1/NR2D; [6]
  pIC50: 4.49

## CCCCN(CCCC)C(=O)Oc1ccc(C(=O)Nc2cccc3ccccc23)cc1 [1063-8]
NR1/NR2A; [3]
  remaining activity at 100 µM: 135%
NR1/NR2B; [4]
  remaining activity at 100 µM: 88%
NR1/NR2D
  remaining activity at 100 µM: 87%

## O=C(O)CCC(=O)N1N=C(c2c(-c3ccccc3)c3cc(Br)ccc3[nH]c2=O)CC1c1ccccc1F (centres unmarked) [compound 1178]
NR1/NR2D; [6]
  pIC50: 4.68

## CC(C)N(C(=O)Oc1ccc(C(=O)Oc2cccc3c(N)cccc23)cc1)C(C)C [1063-14]
NR1/NR2C
  remaining activity at 100 µM: 85%
NR1/NR2A; [3]
  remaining activity at 100 µM: 104%
NR1/NR2B; [4]
  remaining activity at 100 µM: 95%
NR1/NR2D
  remaining activity at 100 µM: 75%

## O=C(Nc1cccc2ccccc12)c1ccc(OC(=O)N2CCCC2)cc1 [1063-6]
NR1/NR2C; [5]
  pIC50: 3.87
NR1/NR2A; [3]
  remaining activity at 100 µM: 87%
NR1/NR2B; [7]
  pIC50: 3.30
NR1/NR2D; [6]
  pIC50: 3.59

## CCN(CC)C(=S)Oc1ccc(C(=O)Nc2ccc(F)cc2)cc1 [compound 1379]
NR1/NR2C; [5]
  pIC50: 3.61
NR1/NR2A; [3]
  remaining activity at 100 µM: 99%
NR1/NR2B; [4]
  remaining activity at 100 µM: 88%
NR1/NR2D; [6]
  pIC50: 4.26

## O=C(O)CCC(=O)N1N=C(c2c(-c3ccccc3)c3cc(Br)ccc3[nH]c2=O)CC1c1ccccc1 (centres unmarked) [compound 1183]
NR1/NR2D; [6]
  pIC50: 4.70

## CCN(CC)C(=O)Oc1ccc(C(=O)Nc2cc(C)cc3c2NCC3)cc1 [1063-32]
NR1/NR2C
  pIC50: 4.70
NR1/NR2A; [1]
  remaining activity at 100 µM: 81%
NR1/NR2B
  pIC50: 3.67
NR1/NR2D
  pIC50: 5.10
